The source of these data is PMC11104609, “Discovery of allosteric regulators with clinical potential to stabilize alpha-L-iduronidase in mucopolysaccharidosis type I” (PLOS ONE, 2024).

Data set [1] can be described thus: Plasma pharmacokinetics of GT-01803 in mice. The following applies: male, C57BL/6, mouse. The class given is in vivo, male C57BL/6 mice. Here is the method:
The in vivo pharmacokinetic (PK) profile of GT-01803 in plasma was assessed in male C57BL/6 mice after single intravenous (i.v.) and oral gavage administration (p.o.) of 2 mg/kg and 10 mg/Kg, respectively. The plasma PK evaluation was performed by Sai Life Sciences Limited (Pune, India) in accordance with guidelines of the Institutional Animal Ethics Committee (IAEC). Eighteen male mice were divided into Group 1 (i.v.: 2 mg/kg) or Group 2 (p.o.: 10 mg/kg). Animals in Group 1 and Group 2 were administered intravenously and orally with GT-01803 solution formulation in 5% N-methyl-2-pyrrolidone (NMP), 5% Solutol HS-15 and 90% saline solution at 2 and 10 mg/kg doses, respectively.
Blood samples were collected under light isoflurane anesthesia from retro-orbital plexus such that samples were obtained at 0.08, 0.25, 0.5, 1, 2, 3, 4, 6 and 8 hr. (i.v.) and Pre-dose, 0.25, 0.5, 1, 2, 3, 4, 6 and 8 hr (p.o.). At each time point, blood samples were collected from three mice. Immediately after collection, plasma was harvested by centrifugation and stored at -70 °C until analysis. All samples were processed by protein precipitation using acetonitrile and analyzed with an LC/MS/MS method suitable for the purpose (LLOQ = 1.00 ng/mL).
PK parameters were calculated using the non-compartmental analysis tool of Phoenix WinNonlin (Version 7.0). Maximum concentration (Cmax) and time to reach maximum concentration (Tmax) were the observed values. The areas under the concentration time curve (AUClast and AUCinf) […] were calculated by linear trapezoidal rule. The terminal elimination rate constant, ke, was determined by regression analysis of the linear terminal portion of the log plasma concentration-time curve. The terminal half-life (T1/2) was estimated as follows 0.693/ke; CLi.v. = Dose/AUCinf; Vss = MRT X CLi.v.; %F = [(Mean AUCp.o. × Dosei.v.) / (Mean AUCi.v. × Dosep.o.)] × 100.

Data set [2] deals with T1, IDUA (Homo sapiens, UniProt P35475).
T1 sequence (P35475 28-653): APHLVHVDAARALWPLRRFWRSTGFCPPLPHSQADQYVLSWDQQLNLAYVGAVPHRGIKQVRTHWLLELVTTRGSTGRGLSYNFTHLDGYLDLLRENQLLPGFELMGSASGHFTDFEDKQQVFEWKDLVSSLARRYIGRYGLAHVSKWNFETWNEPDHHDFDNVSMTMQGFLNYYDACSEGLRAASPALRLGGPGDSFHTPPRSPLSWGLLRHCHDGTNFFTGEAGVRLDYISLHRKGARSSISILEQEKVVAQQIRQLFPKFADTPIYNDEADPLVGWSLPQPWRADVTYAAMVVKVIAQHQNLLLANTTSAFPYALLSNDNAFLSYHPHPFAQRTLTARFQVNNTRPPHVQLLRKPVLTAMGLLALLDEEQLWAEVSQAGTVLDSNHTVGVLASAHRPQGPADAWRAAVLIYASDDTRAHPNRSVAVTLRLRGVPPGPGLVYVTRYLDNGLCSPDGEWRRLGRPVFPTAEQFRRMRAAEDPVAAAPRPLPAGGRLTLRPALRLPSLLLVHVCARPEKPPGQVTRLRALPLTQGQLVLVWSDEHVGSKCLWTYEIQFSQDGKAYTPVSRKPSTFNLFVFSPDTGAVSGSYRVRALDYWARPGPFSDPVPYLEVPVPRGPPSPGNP
Kind of data set: Differential scanning fluorimetry (DSF) thermal shift. It counts as binding. On the set-up: purchased R&D Systems. Here is the method: The capacity of the compounds to stabilise IDUA was assessed by DSF. The thermal denaturation of purified human native enzyme was monitored in the presence of the extrinsic fluorescent probe SYPRO® Orange (Thermo Fisher Scientific, Waltham, MA, USA), which binds to hydrophobic parts of proteins that become exposed as the protein unfolds. […] Reactions containing 12.5 μL of 1.5 μM rhIDUA protein (purchased from R&D Systems) in 100 mM Hepes, 20 mM MgCl2, pH 7, to a final protein concentration of 0.75 μM with SYPRO Orange 10X, and 12.5 μL of the different compound solutions dissolved in 100% DMSO and diluted into the protein buffer to achieve final concentrations of 1% DMSO. The intensity of SYPRO Orange fluorescence after a systematic increase in temperature was monitored in the Roche LightCycler® 480 II device (Roche Diagnostics). The significance of the melting temperature (Tm) shifts was evaluated based on two criteria: absolute ΔTm shift > 0.5 °C (instrumental criterion) and absolute ΔTm standard deviation ≤ 0.2 (statistical criterion). The thermal shift dose response was performed at various increasing concentrations (from 0.04 to 90 μM) of compound #18 (GT-01803) with rhIDUA (obtained from the Institute of Biotechnology and Biomedicine at the Autonomous University of Barcelona (UAB), Bellaterra, Spain).

For data set [3], the target named is T1, IDUA. As to the kind of experiment: Denaturation prevention (isothermal denaturation) assay with SYPRO Orange. It counts as binding. On the set-up: purchased R&D Systems. Conditions: 30 μM compound, pH 7.0, 37 °C. Here is the method:
The capacity of the compounds to stabilize IDUA in neutral pH buffer was assessed using the denaturation prevention assay. Briefly, rhIDUA (obtained from the Institute of Biotechnology and Biomedicine in the UAB, Bellaterra, Spain) was combined to a final concentration of 1 μM with 5X SYPRO Orange and 30 μM of the corresponding compound in a final reaction volume of 25 μL in 100 mM Hepes, 20 mM MgCl2, pH 7 buffer, or 25 mM NaAc, 150 mM NaCl, pH 5.2. Reactions were incubated at 37 °C, and SYPRO Orange fluorescence intensity was monitored at the indicated time points using Glomax® Discover microplate reader (Promega, Madison, WI, USA). Two independent experiments in triplicate at one concentration (30μM) of compound #18 (GT-01803) were performed for denaturation prevention assays.

On to `CCN(CC(=O)Nc1c(Cl)cccc1Cl)Cc1nc2ccsc2c(=O)[nH]1` [GT-01803], for which, in data set [1] (iv, 2 mg/kg), the AUC(0-inf) is 13600 ng·h/mL, the AUC(0-t) was found to be 13300 ng·h/mL, the clearance stood at 2.45 mL/min/kg and the half-life was 3.54 h. Moreover, the C0 in data set [1] (iv, 2 mg/kg, read-out: C0 (back extrapolated conc.)) was 33500 ng/mL. Further, the Vd in data set [1] (iv, 2 mg/kg, read-out: Vss) is 0.13 L/kg. Moreover, the bioavailability in data set [1] (oral, p.o. 10 mg/kg vs i.v. 2 mg/kg, AUClast considered, read-out: %F (oral bioavailability)) came out at 50%. Moreover, in data set [1] (po, 10 mg/kg), the AUC(0-inf) is 33200 ng·h/mL, the AUC(0-t) worked out at 33000 ng·h/mL, the highest level (Cmax) was 33900 ng/mL and the Tmax turned out to be 0.25 h. Further, the “rhIDUA stabilization by DSF (ΔTm)” value on IDUA [2] (30 μM, compounds #1 to #21) is reported as “highest rhIDUA stabilization”. Moreover, the “increase of rhIDUA melting temperature” value on IDUA [2] (dose response 0.04 to 90 μM, neutral pH) was 4 ºC. Further, the “pH-induced denaturation of rhIDUA” value at IDUA [3] is recorded as “slowed down”.
